Results taken from paper PMC4588578, “Targeting substrate-site in Jak2 kinase prevents emergence of genetic resistance” (Scientific Reports, 2015).
Read-outs that look alike come from different tables or passages of the source.

Key:
[1] = tested on: BaF3 cells expressing ruxolitinib-resistant JAK2-V617F variants; assay: Dose-response analyses with ruxolitinib-resistant variants; type: cell-based; settings: with or without IL-3
Method: Ba/F3 cells expressing mutant BCR-ABL proteins were plated in 96-well plates (0.5–1 × 10^4 cell per well) in RPMI medium containing 10% FCS and lacking IL-3. Kinase inhibitors were included in the media at varying concentrations. After 60 hours, the number of viable cells was assessed using WST-1 reagent (Roche Applied Science, USA), according to the manufacturer’s specifications. Assays were performed in quadruplicate.

[2] = tested on: BaF3 cells expressing JAK2-V617F/L983F; assay: BaF3 cell proliferation dose-response; type: cell-based; settings: variant L983F in JAK2-V617F
[3] = tested on: phospho-STAT5 in BaF3 cells expressing JAK2-V617 variant L983F; assay: Immunoblot analysis of phospho-STAT5; type: cell-based
[4] = tested on: BaF3 cells expressing JAK2-V617F/Y931C/I1018F; assay: BaF3 cell proliferation dose-response; type: cell-based; settings: Mus musculus, BaF3, read-out: IC50, cell proliferation
[5] = tested on: BaF3 cells expressing JAK2-V617F/Y931C/W1038C; assay: BaF3 cell proliferation dose-response; type: cell-based; settings: Mus musculus, BaF3, read-out: IC50, cell proliferation
[6] = tested on: phospho-STAT5 in JAK1-transduced cells; assay: Phospho-STAT5 inhibition in transduced BaF3 cells; type: cell-based; settings: Mus musculus
Method: (§1) Assays were performed in quadruplicate.

[7] = tested on: BaF3 cells expressing JAK2-V617F; assay: Soft-agar colony assay; type: cell-based
[8] = tested on: BaF3 cells expressing JAK2-V617F; settings: read-out: IC50, cell proliferation
[9] = tested on: BaF3 cells expressing JAK2-V617F/Y931C/Y1045*; assay: BaF3 cell proliferation dose-response; type: cell-based; settings: Mus musculus, BaF3, read-out: IC50, cell proliferation
[10] = tested on: BaF3 cells expressing JAK2-V617F/Y931C/F1019L; assay: BaF3 cell proliferation dose-response; type: cell-based; settings: Mus musculus, BaF3, read-out: IC50, cell proliferation
[11] = tested on: BaF3 cells expressing JAK2-V617F/Y931C/W1020C; assay: BaF3 cell proliferation dose-response; type: cell-based; settings: Mus musculus, BaF3, read-out: IC50, cell proliferation
[12] = tested on: phospho-STAT5 in JAK3-transduced cells; assay: Phospho-STAT5 inhibition in transduced BaF3 cells; type: cell-based; settings: Mus musculus
[13] = tested on: BaF3 cells expressing JAK2-V617F/Y931C/Y1045W; assay: BaF3 cell proliferation dose-response; type: cell-based; settings: Mus musculus, BaF3, read-out: IC50, cell proliferation
[14] = tested on: BaF3 cells expressing TEL-JAK2; assay: BaF3 cell proliferation dose-response; type: cell-based; settings: receptor-free fully activated JAK2 (TEL-JAK2); data not shown
Method: as §1

[15] = tested on: BaF3 cells transduced with randomly mutagenized JAK2-V617F; assay: In vitro drug-resistance screen, random mutagenesis; type: cell-based; settings: ruxolitinib at 1, 2 and 5 μM; fedratinib at 2-fold above IC50
Method: To generate random mutation library of Jak2-V617F, E. coli XL1-red cells were transformed with one μg of JAK2-V617F plasmid DNA. More specifically, 50–100 ng of DNA (more than 100 ng of DNA decreases transformation efficiency) was mixed with 100 μl of competent cells in a pre-chilled polypropylene tube and incubated on ice for 30 min, gently swirling every 5 min. For a good library, four to six tubes of competent cells are used. Cells from each tube were plated on four 10 cm LB-agar plates containing 100-μg/ml ampicillin. Plates were incubated at 37 °C for 18–24 hours. When colonies became visible (18–24 hrs), cells were pooled from each plates and plasmid DNA was isolated using the Qiagen’s midiprep kit. At this stage, the heterogeneity of mutations in the library can be roughly assessed by restriction digestion with a frequent cutter such as Sau3A1 or Taq1 or sequencing.
To select resistant clones of JAK2-V617F, high titer retroviruses were produced as describe. One hundred million native BAF3 cells were transduced with 100 ml of virus supernatants having a viral titer of 0.5–1 × 10^6. […] We observed that the overexpression of EPOR or MPL tend to loose dependence on Jak2 resulting to emergence of false-positives[58]. More specifically, 100 × 10^6 cells were mixed with 100 ml of virus supernatant and 100 ml of RPMI, containing 10% serum and 24 μg/ml of polyberene. […]

[16] = tested on: BaF3 cells expressing JAK2-V617F/Y931C/S1025C; assay: BaF3 cell proliferation dose-response; type: cell-based; settings: Mus musculus, BaF3, read-out: IC50, cell proliferation
[17] = tested on: BaF3 cells expressing JAK2-V617F/Y931C/V1075F; assay: BaF3 cell proliferation dose-response; type: cell-based; settings: Mus musculus, BaF3, read-out: IC50, cell proliferation
[18] = tested on: TEL-JAK3-expressing BaF3 cells; assay: Soft-agar colony assay; type: cell-based
[19] = tested on: BaF3 cells expressing JAK2-V617F/Y931C/F1061W; assay: BaF3 cell proliferation dose-response; type: cell-based; settings: Mus musculus, BaF3, read-out: IC50, cell proliferation
[20] = tested on: BaF3 cells expressing JAK2-V617F/Y931C/L1026F; assay: BaF3 cell proliferation dose-response; type: cell-based; settings: Mus musculus, BaF3, read-out: IC50, cell proliferation
[21] = tested on: TEL-JAK1-expressing BaF3 cells; assay: Soft-agar colony assay; type: cell-based
[22] = tested on: BaF3 cells expressing JAK2-V617F/Y931C/S1039F; assay: BaF3 cell proliferation dose-response; type: cell-based; settings: Mus musculus, BaF3, read-out: IC50, cell proliferation
[23] = tested on: BaF3 cells expressing JAK2-V617F; assay: cells; settings: Mus musculus, BaF3, read-out: IC50, cell proliferation, BaF3 JAK2-V617F
[24] = tested on: BaF3 cells expressing luciferase and JAK2-V617F; assay: In vivo efficacy, leukemic burden by bioluminescence; settings: 100 mg/kg twice daily, IP, two weeks
[25] = parameters: method as in PMID 21257798; settings: at 100 mg/kg; cited from earlier work
[26] = tested on: BaF3 cells expressing luciferase and JAK2-V617F/L983F; assay: In vivo efficacy, leukemic burden by bioluminescence; settings: 100 mg/kg twice daily, IP, two weeks
JAK2 kinase domain E930G = target: T1, JAK2 kinase domain E930G (Mus musculus, UniProt Q62120, E930G); assay: Dose response of purified kinase domain; type: biochemical
T1 construct: made in house; host or cells: Spodoptera frugiperda Sf9 (baculovirus)
T1 sequence (Q62120 849-1124 E930G limits assumed): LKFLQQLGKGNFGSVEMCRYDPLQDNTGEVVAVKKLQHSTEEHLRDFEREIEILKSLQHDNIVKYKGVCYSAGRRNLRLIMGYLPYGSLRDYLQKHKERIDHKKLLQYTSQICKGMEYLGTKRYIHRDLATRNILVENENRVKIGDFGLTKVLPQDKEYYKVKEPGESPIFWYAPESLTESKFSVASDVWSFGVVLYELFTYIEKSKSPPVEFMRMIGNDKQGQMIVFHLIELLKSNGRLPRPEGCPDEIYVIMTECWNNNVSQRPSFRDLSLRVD
Method: (§2) Proteins were expressed in Spodoptera frugiperda, Sf9 cells. […] Each point mutants was confirmed by sequence analysis. […] All purification steps were carried out at 4 °C.

JAK2 kinase domain L983F = target: T2, JAK2 kinase domain L983F (Mus musculus, UniProt Q62120, L983F); assay: Dose response of purified kinase domain; type: biochemical
T2 construct: made in house; host or cells: Spodoptera frugiperda Sf9 (baculovirus)
T2 sequence (Q62120 849-1124 L983F limits assumed): as the sequence (Q62120 849-1124 E930G limits assumed) above, with G82E, L135F counted along it
Method: as §2

Question: For `Cc1cc(Nc2nc(N[C@@H](C)c3ncc(F)cn3)ncc2Cl)n[nH]1` [AZD1480], which “resistance of ruxolitinib-resistant variants” value [1] is on record?
Answer: cross-resistance

Question: And the “resistance or sensitivity of variant L983F” value [2]?
Answer: resistance

Question: What does the source list for `Cc1cnc(Nc2ccc(OCCN3CCCC3)cc2)nc1Nc1cccc(S(=O)(=O)NC(C)(C)C)c1` [fedratinib]?
Answer: phospho-STAT5 inhibition (immunoblot) [3]: dose-dependent inhibition; IC50 [4]: 1490 nM; IC50 [5]: 1580 nM; IC50 [6]: > 10 µM; concentration above which cells failed to grow [7]: 3 µM; IC50 [8]: ~900 nM; resistance of ruxolitinib-resistant variants [1]: complete lack of resistance; IC50 [9]: 1680 nM; IC50 [10]: 1030 nM; IC50 [11]: 1010 nM; IC50 [12]: > 5 µM; IC50 [13]: 2110 nM; increase in hypersensitivity of TEL-JAK2 in comparison to JAK2-V617F [14]: ~ 3 fold; emergence of resistant clones [15]: did not result in any resistant clones; IC50 [16]: 2310 nM; IC50 [17]: 2250 nM; concentration up to which colony growth is supported [18]: 4 µM; IC50 [19]: 1980 nM; IC50 [20]: 1690 nM; concentration up to which colony growth is supported [21]: 6 µM; IC50 [22]: 1640 nM; IC50 [23]: 1070 nM

Question: For `N#CC[C@H](C1CCCC1)n1cc(-c2ncnc3[nH]ccc23)cn1` [ruxolitinib], which “effect on transplanted cells (leukemic burden)” value [24] is on record?
Answer: eradicated

Question: And the Cmax [25]?
Answer: 4.4 µM

Question: And the “effect on transplanted cells (leukemic burden)” value [26]?
Answer: ineffective

Question: With `C[C@]12O[C@H](C[C@]1(O)CO)n1c3ccccc3c3c4c(c5c6ccccc6n2c5c31)CNC4=O` [lestaurtinib] as the molecule, how does the “resistance of ruxolitinib-resistant variants” value [1] read?
Answer: cross-resistance

Question: And the “resistance or sensitivity of variant L983F” value [2]?
Answer: resistance

Question: Which results are given for `N#CCNC(=O)c1ccc(-c2ccnc(Nc3ccc(N4CCOCC4)cc3)n2)cc1` [CYT-387]?
Answer: resistance of ruxolitinib-resistant variants [1]: cross-resistance; resistance or sensitivity of purified kinase domain (JAK2 kinase domain E930G): sensitive; resistance or sensitivity of purified kinase domain (JAK2 kinase domain L983F): sensitive; resistance or sensitivity of variant L983F [2]: full sensitivity
